“Also recorded” adds a separate entry of the source.
Legend:
[1] = test system: GFAP-positive astrocytoma cells (U251); assay: Fixable SR101 co-labeling with GFAP in astrocytoma xenograft acute slices, confocal stereology; type: cell-based, human astrocytoma cells implanted in nude rats; conditions: for cells positive for fixable SR101 in astrocytoma tumor regions: tumor core, acute slices, GFAP and DAPI counterstain
Description: (§1) Xenograft acute slices were incubated with the fixable version of SR101 (Texas Red Hydrazide; Sigma), washed at room temperature, and fixed with 4% paraformaldehyde for 12 hours at 4 degrees C. Slices were then rinsed in phosphate buffered saline, permeabilized with 0.3% triton, and blocked with CAS block (Invitrogen) (reference Pierre's paper). GBM xenograft slices were incubated 12-hours in anti-GFAP primary antibody (Millipore; 1:500), and Lymphoma sections were incubated 12-hours in anti-CD20 primary antibody (Millipore; 1:250). Sections were then rinsed and incubated with AlexaFluor488 secondary antibody (Invitrogen), followed by nuclear counterstaining with Dapi (Invitrogen). Fluorescently labeled sections were mounted on slides with vectashield (Vector labs) and No1.5 coverslips (VWR).
We randomly selected one rostral, midline, and caudal acute slice from each brain containing tumor incubated with fixable SR101. Glioma slices were immunofluorescently stained for GFAP, and slices containing lymphoma were stained for CD20. Ten randomly selected 150 um^2 tumor areas in each slice were optically sectioned to 50 um with a Zeiss 710LSM. The first […] of each image stack was discarded to minimize counts from cells damaged during sectioning. A maximum intensity projection image was generated from the remaining 45 um, and a stereology dissector was overlaid onto the image. Cells within the dissector, and those in contact with its left and bottom edges were counted for either GFAP or CD20 positivity, and for SR101 positivity. The percent overlap between immunostaining and SR101 positivity was calculated. […]
(§2) Next, we incubated acute slices from astrocytoma and CNS lymphoma animal models with fixable-SR101 and quantified the staining localization to GFAP for astrocytoma slices and CD20 for lymphoma slices. We adapted standard stereology approaches to quantify tumor cells labeled with fixable-SR101 and GFAP or CD20 antibodies. […]

[2] = test system: human glioma cells in a rodent xenograft; assay: In vivo labeling after intra-arterial injection of fixable SR101; design: species or system rat; conditions: brains processed two hours post-injection
Text: Twenty days post-implantion, rats were deeply anesthetized using the previously described ketamin/xylazine mixture. The rats were then intra-arterially injected with Texas red hydrazide. Two hours post-injection brains were perfused, fixed, and sectioned on a cryostat. Sections were mounted on slides and imaged with a Zeiss LSM 710 confocal microscope.

[3] = test system: human glioma cell line U251; assay: In vitro SR101 labeling of cultured astrocytoma cells; type: cell-based; conditions: 5 uM SR101, 20 minutes, DIC imaging with fluorescence overlay
Description: We acquired human glioma cell line U251 and human CNS lymphoma cell line MC116 from ATCC. Cells were maintained in culture with DMEM media supplemented with 10% FBS, and RPMI media supplemented with 20% FBS respectively (all from Invitrogen, Grand Island, N.Y.). Cells were grown at 37° C. in a humidified incubator under 5% CO2.
We labeled U251 glioma cells by seeding a collagen-coated glass-bottom dish (MatTek) with 100,000 cells. After 24 hours, media was replaced with aCSF containing 5 uM SR101 (Sigma) for 20 minutes, followed by two 5 minute washes with standard aCSF.
(§3) SR101-labeled samples were placed in uncoated No. 1.5 glass-bottom dishes and positioned on the stage of a Zeiss 710 laser scanning confocal microscope equipped with a 40×/1.2 NA water emersion objection. We imaged SR101 by exciting the fluorophore with a 561 nm diode laser and collecting 595 nm-625 nm emission. The confocal aperature was set to Airy unit for all imaging. The laser and gain values were set to fill the dynamic range of the photomultiplier tube, and the frame size was set to sample at nyquist. Images were collected in 8 and 12 bit format absent of non-linear processing. An unstained adjacent tissue sample was imaged with each sample. In some cases, large field-of-view tiled and optically sectioned images were rapidly acquired using a Zeiss line-sweeping confocal microscope. […]

U251 derived tumor = assay: SR101 staining of acute slices from U251 rodent xenografts, confocal imaging; type: cell-based, human astrocytoma cells implanted in nude rats
Description: Animals were anesthetized by intramuscular injection of a mixture of 10 mg/kg xylazine and 80 mg/kg ketamine (Wyeth, Madison, N.J.) and placed in a small animal stereotactic headframe (Model 900, David Kopf Instruments, Tujunga, Calif.). A 10-mm incision was made starting between the animal's eyes, exposing bregma. A bur hole was made 3.5 mm lateral to bregma. U251 or MC116 cells were infused at a depth of 4.5 mm below the surface of the brain after the syringe (Hamilton) was advanced 5.0 mm to create a 0.5-mm pocket. The cell suspension was infused using a UMP3-1 UltraMicroPump microinjector (WPI, Sarasota, Fla.) set to a volume of […] with an infusion rate of 3.00 μL/minute. The needle was withdrawn 2 minutes after the injection to minimize backflow of the cell suspension. The bur hole was covered with bone wax and the skin incision was sutured.
Twenty days post-implantation, rats were deeply anesthetized using the xylazine/ketamine mixture as described previously. Animals were rapidly decapitated, brains were removed, and coronal cortical slices (350 μm thick) were cut on a vibratome (Trent's aCSF protocol). Slices were then incubated at room temperature in aCSF containing 5 uM SR101 for 20 minutes followed by a 10 minute wash in aCSF.
as §3

[4] = test system: CD20 positive lymphoma cells (MC116); assay: SR101 / fixable SR101 staining and CD20 co-labeling in CNS lymphoma xenograft acute slices, confocal stereology; type: cell-based, human CNS lymphoma cells implanted in nude rats
Description: as §1, with “Fluorescently labeled sections were mounted on slides with vectashield (Vector labs) and No1.5 coverslips (VWR).” left out
We randomly selected one rostral, midline, and caudal acute slice from each brain containing tumor incubated with fixable SR101. […] Cells within the dissector, and those in contact with its left and bottom edges were counted for either GFAP or CD20 positivity, and for SR101 positivity. The percent overlap between immunostaining and SR101 positivity was calculated. […]
as §2

[5] = test system: human brain tumor biopsies; assay: SR101 staining of fresh human brain tumor biopsies, confocal imaging; type: cell-based
Description: This research was approved by the institutional review board at St. Joseph's Hospital and Medical Center and all surgery was performed at the Barrow Neurological Institute. All subjects were consented pre-operatively for participation. Samples were obtained at the time of craniotomy from within the tumor mass at a location determined to be safe by the surgeon. The samples, averaging 4×2×2 mm in size, were transferred into ice-cold artificial cerebrospinal fluid (aCSF) containing 5 uM SR101. Samples were then transferred from the operating room to the laboratory, rinsed with aCSF (10 minutes), and immediately imaged.
SR101-labeled samples were placed in uncoated No. 1.5 glass-bottom dishes and positioned on the stage of a Zeiss 710 laser scanning confocal microscope equipped with a 40×/1.2 NA water emersion objection. We imaged SR101 by exciting the fluorophore with a 561 nm diode laser and collecting 595 nm-625 nm emission. The confocal aperature was set to Airy unit for all imaging. The laser and gain values were set to fill the dynamic range of the photomultiplier tube, and the frame size was set to sample at nyquist. Images were collected in 8 and 12 bit format absent of non-linear processing. An unstained adjacent tissue sample was imaged with each sample. In some cases, large field-of-view tiled and optically sectioned images were rapidly acquired using a Zeiss line-sweeping confocal microscope. Frame size for this system was fixed to 512×512 by a linear charged coupled device (CCD) array.
After we identified SR101's ability to rapidly label and differentiate astrocytoma cells and reactive astrocytes in animal models, we tested its utility as an intraoperative diagnostic agent. We determined the feasibility of intraoperatively identifying astrocytic brain tumors by confocal fluorescence imaging of fresh human brain tumor biopsies labeled with SR101. We screened samples from 60* patients with a total of 10 common human brain tumor types. The diagnosis as determined by traditional immunohistochemistry and paraffin-embedded hematoxylin and eosin histopathology was accepted as the final diagnosis for the purposes of comparison.
Tissue samples were transported in artificial cerebrospinal fluid and imaged within 30-40 minutes of resection. We first found SR101 filled the cytoplasm of astrocytes in non-tumor burdened brain (FIG. 4A). Next, we studied tissue sampled from tumor margins and found SR101 filled the cytoplasm of reactive astrocytes and tumor cells in these regions (FIG. 4B). […] At higher magnification we observed that SR101 delineated some cell nuclei and identified nuclear atypia which is a common feature of some gliomas (FIG. 4C).

SMILES	cells positive for fixable SR101 in astrocytoma tumor regions [1]	cells positive for fixable SR101 in astrocytoma tumor regions ([1]; listed as Fixable-SR101)	in vivo labeling of tumor cells and tumor margin [2]	SR101 labeling of cultured U251 astrocytoma cells [3]	mean fluorescence intensity (MFI), tumor (U251 derived tumor; SR101-labeled tumor core, acute slice, 5 uM SR101 20 minutes)	mean fluorescence intensity (MFI), background (U251 derived tumor; background of SR101-labeled tumor core image, acute slice)	difference in mean fluorescence intensity between U251 cells and reactive astrocytes (U251 derived tumor; normalized to background, n=9 optical sections from 3 acute slices)	co-localization with GFAP-positive cells in astrocytoma regions ([1]; U251 xenograft acute slices, fixable SR101, stereology) [%]	co-localization with CD20 positive cells in lymphoma tumor regions ([4]; MC116 xenograft acute slices, fixable SR101, stereology) [%]	SR101 signal / cells labeled in lymphoma regions ([4]; acute slices from nude rats implanted with human CNS lymphoma cells)	staining of human lymphoma ([5]; human biopsies)	astrocytoma cases selectively stained ([5]; human biopsies versus final diagnosis)	staining of cells from astrocytoma tumor cores ([5]; human biopsies, 5 uM SR101)	staining of non-astrocytic tumor samples / other CNS neoplasms ([5]; human biopsies, 5 uM SR101)	labeling of low grade human oligodendroglioma samples ([5]; human biopsies, samples often GFAP positive)
NNS(=O)(=O)c1ccc(C2=c3cc4c5c(c3Oc3c2cc2c6c3CCCN6CCC2)CCC[N+]=5CCC4)c(S(=O)(=O)[O-])c1 [fixable SR101, Texas Red Hydrazide]	majority of cells were positive	labeled the majority of cells	specific in vivo labeling of human glioma cells												
O=S(=O)([O-])c1cc(S(=O)(=O)O)ccc1C1=c2cc3c4c(c2Oc2c1cc1c5c2CCCN5CCC1)CCC[N+]=4CCC3 [SR101, Sulforhodamine 101]				filled the cytoplasm of the cultured cell and clearly delineated cell nuclei	102.84	8.74	no statistically significant difference; also recorded: did not differ	79.6	1.97	minimal; also recorded: small number of cells	negative; also recorded: failed to stain	14 of 15	strong cytoplasmic staining	did not stain; also recorded: non-specific background staining	does not stain; also recorded: did not label

From US11207427B2, “System and method for diagnosis of astrocytic brain tumor” (Dignity Health, priority 2012, dated 2021)
